Measurements from patent US5852007A, “Cysteine and serine protease inhibitors containing D-amino acid at the P2 position, methods of making same, and methods of using same” (priority 1997, dated 1998).
Square brackets hold non-standard residues; d marks the D form. Peptide text beside a SMILES is read from it. * marks the point of attachment. d(hPhe) = N[C@H](CCc1ccccc1)C(=O)O; dPhg = N[C@@H](C(=O)O)c1ccccc1; Tos = Cc1ccc(S(=O)(=O)*)cc1; Ms = CS(=O)(=O)*

Tests used:
Assay type in all cases: biochemical
[1] = molecular target: T1, Recombinant human calpain I (Homo sapiens, UniProt P07384); assay: Inhibition of calpain I activity; settings: Table III
T1 construct: made in house
T1 sequence (P07384 1-714): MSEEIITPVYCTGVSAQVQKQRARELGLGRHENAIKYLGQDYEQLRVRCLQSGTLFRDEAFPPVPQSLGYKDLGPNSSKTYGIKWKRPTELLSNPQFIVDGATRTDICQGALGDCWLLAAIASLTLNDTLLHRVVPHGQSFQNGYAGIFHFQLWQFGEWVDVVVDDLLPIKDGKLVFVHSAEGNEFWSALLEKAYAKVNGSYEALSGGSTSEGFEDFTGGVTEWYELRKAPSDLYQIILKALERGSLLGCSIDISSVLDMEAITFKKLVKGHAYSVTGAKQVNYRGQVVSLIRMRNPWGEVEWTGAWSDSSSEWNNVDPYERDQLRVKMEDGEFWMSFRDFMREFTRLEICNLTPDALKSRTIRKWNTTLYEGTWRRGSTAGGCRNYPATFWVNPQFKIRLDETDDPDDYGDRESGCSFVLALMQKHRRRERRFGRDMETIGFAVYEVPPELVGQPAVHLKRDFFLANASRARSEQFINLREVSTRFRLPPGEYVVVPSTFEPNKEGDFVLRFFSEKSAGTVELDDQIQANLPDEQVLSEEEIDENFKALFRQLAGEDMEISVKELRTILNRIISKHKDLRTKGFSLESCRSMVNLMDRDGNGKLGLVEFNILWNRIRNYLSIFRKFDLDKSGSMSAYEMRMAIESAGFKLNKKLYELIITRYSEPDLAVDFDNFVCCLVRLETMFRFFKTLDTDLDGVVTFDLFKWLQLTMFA
Experimental: To evaluate inhibitory activity, stock solutions (40 times concentrated) of exemplary compounds of the invention were prepared in 100% anhydrous DMSO and 5 μL of each inhibitor preparation were aliquoted into each of three wells of a 96-well plate. Recombinant human calpain I, prepared by the method of Meyer et al. (Biochem. […] To start the reaction, 20 μL of 50 mM CaCl2 in assay buffer was added to all wells of the plate, excepting three, which were used as background signal baseline controls. Substrate hydrolysis was monitored every 5 minutes for a total of 30 minutes. […] Inhibition of calpain I activity was calculated as the percent decrease in the rate of substrate hydrolysis in the presence of inhibitor (VI) relative to the rate in its absence (VO). Comparison between VO and VI was made within the linear range for substrate hydrolysis. For screening, compounds were tested at 10, 1.0, and 0.1 μM. […] The results were plotted as % inhibition versus log inhibitor concentration and the IC50 was calculated from linear regression of the data. Apparent second order rate constants were determined from analysis of reaction progress curves under pseudo-first order conditions. Each determination represents the means of three or more independent single cuvette analyses continually monitored via a Perkin-Elmer LS50B spectrofluorimeter. The rate of inhibition of hydrolysis was obtained by fitting the curve to the exponential equation (1): […]

cathepsin L = molecular target: T2, cathepsin L (Homo sapiens, UniProt P07711); assay: Inhibition of cathepsin L; settings: Table III; 1 uM; read-out: Cat L % I @ 1 uM
T2 construct: purchased Calbiochem 219402
T2 sequence (P07711 114-288 limits assumed): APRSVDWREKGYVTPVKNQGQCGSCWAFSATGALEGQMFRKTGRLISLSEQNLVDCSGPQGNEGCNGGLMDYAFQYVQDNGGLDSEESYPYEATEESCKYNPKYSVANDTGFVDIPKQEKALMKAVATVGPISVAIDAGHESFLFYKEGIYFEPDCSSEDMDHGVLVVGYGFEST
T2 sequence (P07711 292-333 limits assumed): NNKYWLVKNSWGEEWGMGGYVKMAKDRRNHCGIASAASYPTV
Experimental: (§1) Additionally,the order of reagents added to the plate was altered because both enzymes are constitutively active. Following inhibitor addition to the plates, appropriate 2× concentrated stock dilutions of the enzyme preparations were made in assay buffer and 100 μl added to each well. The assay was initiated by addition of 100 μl of 2× concentrated stock dilution of substrate in assay buffer.

α-chymotrypsin = molecular target: T3, α-chymotrypsin (Bos taurus, UniProt P00766); assay: Inhibition of α-chymotrypsin; settings: Table III; 10 uM; read-out: Chymotrypsin % I @ 10 uM
T3 construct: purchased Sigma Chem. Co. C-3142
Experimental: Additionally, because α-chymotrypsin is not a calcium sensitive enzyme and is constitutively active, following addition of inhibitor stocks to the 96 well plates, 100 μl of a 2-fold concentrated stock of enzyme in dilution buffer was first added and the reaction started by addition of 100 μl of a 2-fold concentrated stock of substrate in assay buffer. Substrate hydrolysis was monitored every 5 minutes up to 30 minutes using a Fluoroskan II ([…]).

thrombin = molecular target: T4, thrombin (Homo sapiens, UniProt P00734); assay: Inhibition of thrombin; settings: Table III; 10 uM; read-out: Thrombin % I @ 10 uM
T4 construct: purchased Sigma Chem. Co. T-7009

cathepsin B = molecular target: T5, cathepsin B (Homo sapiens, UniProt P07858); assay: Inhibition of cathepsin B; settings: Table III; for inhibition at 1 µM: read-out: Cat B % I @ 1 uM; for IC50: read-out: Cat B IC50
T5 construct: purchased Calbiochem 219364
Experimental: as §1

SMILES | IC50 [1] [nM] | inhibition at 0.1 µM [1] [%] | inhibition at 1 µM (cathepsin L) [%] | inhibition at 10 µM (α-chymotrypsin) [%] | inhibition at 10 µM (thrombin) [%] | inhibition at 1 µM (cathepsin B) [%] | IC50 (cathepsin B) [nM]
O=C[C@H](Cc1ccccc1)NC(=O)[C@@H](COCc1ccccc1)NS(=O)(=O)N1CCOCC1 [Compound 53] | 72 | 25 | 100 | 0 | 0 | 98 | 
O=C[C@H](Cc1ccccc1)NC(=O)[C@@H](COCc1ccccc1)NS(=O)(=O)c1cccs1 [Compound 54] | 13 | 95 | 100 | 3 | 4 | 100 | 
Cc1noc(C)c1S(=O)(=O)N[C@H](COCc1ccccc1)C(=O)N[C@H](C=O)Cc1ccccc1 [Compound 55] | 25 | 87 | 100 | 12 | 2 | 90 | 
O=C[C@H](Cc1ccccc1)NC(=O)[C@@H](Cc1ccccc1)NS(=O)(=O)c1ccccc1 [Compound 59] | 20 | 86 | 100 | 4 | 0 | 100 | 5
CCS(=O)(=O)N[C@H](Cc1ccccc1)C(=O)N[C@H](C=O)Cc1ccccc1 [Compound 60] | 33 | 74 | 100 | 0 | 0 | 97 | 
Cc1ccc(S(=O)(=O)N[C@H](Cc2ccccc2)C(=O)N[C@H](C=O)Cc2ccccc2)cc1 [Compound 61] (Tos-[dF]-Phe-aldehyde) | 22 | 83 | 100 | 0 | 0 | 100 | 
CS(=O)(=O)N[C@H](CCc1ccccc1)C(=O)N[C@H](C=O)Cc1ccccc1 [Compound 62] (Ms-[d(hPhe)]-Phe-aldehyde) | 39 | 71 | 89 | 4 | 0 | 85 | 
O=C[C@H](Cc1ccccc1)NC(=O)[C@@H](COCc1ccccc1)NC(=O)OCc1ccccc1 [Compound 64] |  | 68 | 100 | 10 | 0 | 87 | 
CS(=O)(=O)N[C@H](Cc1ccccc1)C(=O)N[C@H](C=O)Cc1ccccc1 [Compound 70] (Ms-[dF]-Phe-aldehyde) | 16 | 85 | 100 | 12 | 0 | 90 | 
O=C[C@H](Cc1ccccc1)NC(=O)[C@@H](Cc1c[nH]c2ccccc12)NS(=O)(=O)c1ccccc1 [Compound 71] | 31 | 92 | 100 | 5 | 11 | 100 | 
O=C[C@H](Cc1ccccc1)NC(=O)[C@@H](Cc1ccccc1)NS(=O)(=O)c1ccc2ccccc2c1 [Compound 72] | 14 | 91 | 100 | 7 | 13 | 100 | 
O=C[C@H](Cc1ccccc1)NC(=O)[C@@H](Cc1c[nH]c2ccccc12)NS(=O)(=O)c1cccs1 [Compound 73] | 14 | 95 | 100 | 16 | 12 | 100 | 
O=C[C@H](Cc1ccccc1)NC(=O)[C@@H](Cc1ccccc1)NS(=O)(=O)c1cccc2cccnc12 [Compound 74] | 33 | 83 | 100 | 13 | 6 | 100 | 
O=C[C@H](Cc1ccccc1)NC(=O)[C@@H](Cc1ccccc1)NS(=O)(=O)c1cccs1 [Compound 75] | 20 | 91 | 99 | 2 | 10 | 100 | 
CS(=O)(=O)N[C@@H](C(=O)N[C@H](C=O)Cc1ccccc1)c1ccccc1 [Compound 76] (Ms-[dPhg]-Phe-aldehyde) | 13 | 88 | 90 | 30 | 1 | 79 | 250
CS(=O)(=O)N[C@H](Cc1c[nH]c2ccccc12)C(=O)N[C@H](C=O)Cc1ccccc1 [Compound 77] (Ms-[dW]-Phe-aldehyde) | 14 | 91 | 93 | 0 | 0 | 90 | 
CN(Cc1ccccc1)C(=O)C[C@@H](NS(C)(=O)=O)C(=O)N[C@H](C=O)Cc1ccccc1 [Compound 78] | 12 | 94 | 100 | 0 | 0 | 100 | 6
CN(Cc1ccccc1)C(=O)CC[C@@H](NS(C)(=O)=O)C(=O)N[C@H](C=O)Cc1ccccc1 [Compound 79] | 1000 | 47 | 93 | 8 | 1 | 99 | 
CS(=O)(=O)N[C@H](CS(=O)(=O)Cc1ccccc1)C(=O)N[C@H](C=O)Cc1ccccc1 [Compound 80] | 15 | 90 | 100 | 8 | 4 | 99 | 46
CCNC(=O)C(=O)[C@H](Cc1ccccc1)NC(=O)[C@@H](COCc1ccccc1)NS(C)(=O)=O [Compound 81] | 180 | 18 | 100 | 2 | 0 | 73 | 
CC(C)(C)OC(=O)N[C@H](COCc1ccccc1)C(=O)N[C@H](C=O)Cc1ccccc1 [Compound 82] |  | 4 | 93 | 8 | 6 | 60 | 
CN([C@H](COCc1ccccc1)C(=O)N[C@H](C=O)Cc1ccccc1)S(C)(=O)=O [Compound 83] | 520 | 37 | 53 | 0 | 7 | 62 | 
CS(=O)(=O)N[C@H](COCc1ccccc1)C(=O)N[C@@H](C=O)Cc1ccccc1 [Compound 84] |  | 2 | 93 | 0 | 0 | 22 | 
